US9802901B2, “Antibacterial 2H-indazole derivatives” (priority 2013, dated 2017)
Values after ≈ are worked out from the molar mass of the structure shown. Structures can show the parent of a compound that is named as a salt. Where two headings read alike, the source gives them in different places.

Tests used:
Assay in all cases: Bacterial growth minimal inhibitory concentration (broth microdilution, CLSI M7-A7)
[1] = test system: E. coli ATCC25922; assay type: cell-based, Escherichia coli; conditions: for MIC: Escherichia coli
Description: (§1) Minimal Inhibitory Concentrations (MICs; mg/L) were determined in cation-adjusted Mueller-Hinton Broth by a microdilution method following the description given in “Methods for Dilution Antimicrobial Susceptibility Tests for Bacteria that Grow Aerobically”, Approved standard, 7th ed., Clinical and Laboratory Standards Institute (CLSI) Document M7-A7, Wayne, Pa., USA (2006).
(§2) All Example compounds, except the compound of Example 62, were tested against several Gram-positive and Gram-negative bacteria. […] K. pneumoniae A-651 and Acinetobacter baumannii T6474 are multiply-resistant strains (in particular quinolone-resistant), while E. coli ATCC25922 and P. aeruginosa ATCC27853 are quinolone-sensitive strains.

[2] = test system: P. aeruginosa ATCC27853; assay type: cell-based, Pseudomonas aeruginosa; conditions: for MIC: Pseudomonas aeruginosa
Description: as §1, §2

[3] = test system: Acinetobacter baumannii T6474; assay type: cell-based; conditions: for MIC: Acinetobacter baumannii
Description: as §1, §2

[4] = test system: K. pneumoniae A-651; assay type: cell-based, Klebsiella pneumoniae; conditions: for MIC: Klebsiella pneumoniae
Description: as §1, §2

[5] = ATCC25922, cation-adjusted Mueller-Hinton Broth, microdilution, quinolone-sensitive strain, read-out: MIC for E. coli ATCC25922
[6] = ATCC27853, cation-adjusted Mueller-Hinton Broth, microdilution, quinolone-sensitive strain, read-out: MIC for P. aeruginosa ATCC27853
[7] = T6474, cation-adjusted Mueller-Hinton Broth, microdilution, multiply-resistant (quinolone-resistant) strain, read-out: MIC for A. Baumannii T6474
[8] = A651, cation-adjusted Mueller-Hinton Broth, microdilution, multiply-resistant (quinolone-resistant) strain, read-out: MIC for K. Pneumoniae A-651
[9] = cation-adjusted Mueller-Hinton Broth, microdilution, quinolone-sensitive strain
[10] = cation-adjusted Mueller-Hinton Broth, microdilution, multiply-resistant (quinolone-resistant) strain

Structure (SMILES) | MIC [1, 5] [mg/L] | MIC [2, 6] [mg/L] | MIC [3, 7] [mg/L] | MIC [4, 8] [mg/L] | also measured
CC(CCn1cc2cc(-c3ccc(OCCN4CCOCC4)cc3F)ccc2n1)(C(=O)NO)S(C)(=O)=O.O=CO (racemic) [RE3, (RS)-4-{5-[2-fluoro-4-(2-morpholin-4-yl-ethoxy)-phenyl]-indazol-2-yl}-N-hydroxy-2-methylsulfonyl-2-methyl-butanamide formic acid salt] | 1 | 8 | 8 | 2 | –
COc1ccc(-c2ccc3nn(CC[C@](C)(C(=O)NO)S(C)(=O)=O)cc3c2)c(F)c1 [Example 1, (R)-4-[5-(2-fluoro-4-methoxy-phenyl)-indazol-2-yl]-N-hydroxy-2-methylsulfonyl-2-methyl-butanamide] | 0.063 (≈ 0.145 µM) | 2 (≈ 4.59 µM) | 1 (≈ 2.3 µM) | 0.063 (≈ 0.145 µM) | –
C[C@@](CCn1cc2cc(C#CC#CC3(N)COC3)ccc2n1)(C(=O)NO)S(C)(=O)=O [Example 48, (R)-4-(5-((3-aminooxetan-3-yl)buta-1,3-diyn-1-yl)-2H-indazol-2-yl)-N-hydroxy-2-methyl-2-(methylsulfonyl)butanamide formate] | – | – | – | – | MIC ([1]; ATCC25922, read-out: MIC for E. coli ATCC25922): 2 mg/L; MIC ([2]; ATCC27853, read-out: MIC for P. aeruginosa ATCC27853): 2 mg/L; MIC ([3]; T6474, read-out: MIC for A. Baumannii T6474): > 32 mg/L; MIC ([4]; A651, read-out: MIC for K. Pneumoniae A-651): 4 mg/L
CSc1ccc(-c2ccc3nn(CC[C@](C)(C(=O)NO)S(C)(=O)=O)cc3c2)c(F)c1 [Example 9, (R)-4-[5-(2-fluoro-4-methylsulfanyl-phenyl)-indazol-2-yl]-N-hydroxy-2-methylsulfonyl-2-methyl-butanamide] | 0.063 (≈ 0.14 µM) | 2 (≈ 4.43 µM) | 0.25 (≈ 0.554 µM) | 0.063 (≈ 0.14 µM) | –
C[C@@](CCn1cc2cc(C#Cc3ccc(CO)cc3)ccc2n1)(C(=O)NO)S(C)(=O)=O [Example 21, (R)—N-hydroxy-4-(5-((4-(hydroxymethyl)phenyl)ethynyl)-2H-indazol-2-yl)-2-methyl-2-(methylsulfonyl)butanamide] | 0.125 (≈ 0.283 µM) | 1 (≈ 2.26 µM) | 0.5 (≈ 1.13 µM) | 0.25 (≈ 0.566 µM) | –
CC(C)(O)c1ccc(C#Cc2ccc3nn(CC[C@](C)(C(=O)NO)S(C)(=O)=O)cc3c2)cc1 [Example 27, (R)—N-hydroxy-4-(5-((4-(2-hydroxypropan-2-yl)phenyl)ethynyl)-2H-indazol-2-yl)-2-methyl-2-(methylsulfonyl)butanamide] | 0.063 (≈ 0.134 µM) | 0.5 (≈ 1.06 µM) | 0.25 (≈ 0.532 µM) | 0.125 (≈ 0.266 µM) | –
C[C@@](CCn1cc2cc(C#Cc3ccc([C@H]4C[C@@H]4CO)cc3)ccc2n1)(C(=O)NO)S(C)(=O)=O [Example 42, (R)—N-hydroxy-4-(5-((4-((1S,2S)-2-(hydroxymethyl)cyclopropyl)phenyl)ethynyl)-2H-indazol-2-yl)-2-methyl-2-(methylsulfonyl)butanamide] | 0.063 (≈ 0.131 µM) | 0.25 (≈ 0.519 µM) | 0.125 (≈ 0.26 µM) | 0.063 (≈ 0.131 µM) | –
C[C@@](CCn1cc2cc(C#Cc3cncnc3)ccc2n1)(C(=O)NO)S(C)(=O)=O [Example 59, (R)—N-hydroxy-2-methyl-2-(methylsulfonyl)-4-(5-(pyrimidin-5-ylethynyl)-2H-indazol-2-yl)butanamide] | 4 (≈ 9.67 µM) | 8 (≈ 19.3 µM) | 8 (≈ 19.3 µM) | 8 (≈ 19.3 µM) | –
C[C@@](CCn1cc2cc(C#Cc3ccc(C4(N)CC4)cc3)ccc2n1)(C(=O)NO)S(C)(=O)=O.O=CO [Example 79, (R)-4-(5-((4-(1-aminocyclopropyl)phenyl)ethynyl)-2H-indazol-2-yl)-N-hydroxy-2-methyl-2-(methylsulfonyl)butanamide formate] | 0.125 | 1 | 2 | 0.25 | –
COc1ccc(-c2cc3cn(CC[C@](C)(C(=O)NO)S(C)(=O)=O)nc3cc2F)c(F)c1 [Example 5, (R)-4-[6-fluoro-5-(2-fluoro-4-methoxy-phenyl)-indazol-2-yl]-N-hydroxy-2-methylsulfonyl-2-methyl-butanamide] | 0.063 (≈ 0.139 µM) | 4 (≈ 8.82 µM) | 2 (≈ 4.41 µM) | 0.063 (≈ 0.139 µM) | –
C[C@@](CCn1cc2cc(C#CC#CC3(O)COC3)ccc2n1)(C(=O)NO)S(C)(=O)=O [Example 28, (R)—N-hydroxy-4-(5-((3-hydroxyoxetan-3-yl)buta-1,3-diyn-1-yl)-2H-indazol-2-yl)-2-methyl-2-(methylsulfonyl)butanamide] | 0.5 (≈ 1.16 µM) | 1 (≈ 2.32 µM) | > 32 | 0.5 (≈ 1.16 µM) | –
C[C@@](CCn1cc2c(F)c(C#CC#C[C@H]3C[C@@H]3CO)ccc2n1)(C(=O)NO)S(C)(=O)=O (relative stereo) [Example 18, (R)-4-{4-fluoro-5-[4-((1S*,2S*)-2-hydroxymethyl-cyclopropyl)-buta-1,3-diynyl]-indazol-2-yl}-N-hydroxy-2-methylsulfonyl-2-methyl-butanamide] | 0.125 (≈ 0.279 µM) | 0.5 (≈ 1.12 µM) | 4 (≈ 8.94 µM) | 0.125 (≈ 0.279 µM) | –
COc1cccc(-c2ccc3nn(CCC(C)(C(=O)NO)S(C)(=O)=O)cc3c2)c1F (racemic) [RE7, (RS)-4-(5-(2-fluoro-3-methoxyphenyl)-2H-indazol-2-yl)-N-hydroxy-2-methyl-2-(methylsulfonyl)butanamide] | 0.125 (≈ 0.287 µM) | 2 (≈ 4.59 µM) | 0.5 (≈ 1.15 µM) | 0.125 (≈ 0.287 µM) | –
C[C@@](CCn1cc2cc(C#CC#C[C@H]3C[C@@H]3CO)c(F)cc2n1)(C(=O)NO)S(C)(=O)=O [Example 53, (R)-4-(6-fluoro-5-(((1S,2S)-2-(hydroxymethyl)cyclopropyl)buta-1,3-diyn-1-yl)-2H-indazol-2-yl)-N-hydroxy-2-methyl-2-(methylsulfonyl)butanamide] | ≤ 0.063 | 0.5 (≈ 1.12 µM) | 2 (≈ 4.47 µM) | 0.125 (≈ 0.279 µM) | –
C[C@H](O)c1ccc(C#Cc2ccc3nn(CC[C@](C)(C(=O)NO)S(C)(=O)=O)cc3c2)cc1 [Example 34] | – | – | – | – | MIC for E. coli ATCC25922 [1, 9]: 0.063 mg/L; MIC for P. aeruginosa ATCC27853 [2, 9]: 0.5 mg/L; MIC for A. Baumannii T6474 [3, 10]: 1 mg/L; MIC for K. Pneumoniae A-651 [4, 10]: 0.125 mg/L
C[C@@](CCn1cc2cc(C#CC#C[C@@]3(F)C[C@@H]3CO)ccc2n1)(C(=O)NO)S(C)(=O)=O [Example 74, (R)-4-(5-(((1R,2R)-1-fluoro-2-(hydroxymethyl)cyclopropyl)buta-1,3-diyn-1-yl)-2H-indazol-2-yl)-N-hydroxy-2-methyl-2-(methylsulfonyl)butanamide] | 0.125 (≈ 0.279 µM) | 0.5 (≈ 1.12 µM) | 4 (≈ 8.94 µM) | 0.125 (≈ 0.279 µM) | –
C[C@@](CCn1cc2cc(-c3ccc(OC(F)(F)F)cc3)ccc2n1)(C(=O)NO)S(C)(=O)=O [Example 8, (R)—N-hydroxy-2-methylsulfonyl-2-methyl-4-[5-(4-trifluoromethoxy-phenyl)-indazol-2-yl]-butanamide] | 0.25 (≈ 0.53 µM) | 4 (≈ 8.48 µM) | 0.125 (≈ 0.265 µM) | 0.5 (≈ 1.06 µM) | –
C[C@@](CCn1cc2cc(C#Cc3ccc([C@H](O)CO)cc3)ccc2n1)(C(=O)NO)S(C)(=O)=O [Example 51, (R)-4-(5-((4-((S)-1,2-dihydroxyethyl)phenyl)ethynyl)-2H-indazol-2-yl)-N-hydroxy-2-methyl-2-(methylsulfonyl)butanamide] | 1 (≈ 2.12 µM) | 0.5 (≈ 1.06 µM) | 1 (≈ 2.12 µM) | 0.5 (≈ 1.06 µM) | –
CC(CCn1cc2cc(-c3ccc(OCCCN4CCOCC4)cc3)ccc2n1)(C(=O)NO)S(C)(=O)=O.O=CO (racemic) [RE1, (RS)—N-hydroxy-2-methylsulfonyl-2-methyl-4-{5-[4-(3-morpholin-4-yl-propoxy)-phenyl]-indazol-2-yl}-butanamide formic acid salt] | 0.5 | 4 | 4 | 1 | –
C[C@@](CCn1cc2cc(-c3ccc(OC(F)(F)F)cc3F)ccc2n1)(C(=O)NO)S(C)(=O)=O [Example 35, (R)-4-[5-(2-fluoro-4-trifluoromethoxy-phenyl)-indazol-2-yl]-N-hydroxy-2-methylsulfonyl-2-methyl-butanamide] | 0.125 (≈ 0.255 µM) | 4 (≈ 8.17 µM) | 0.25 (≈ 0.511 µM) | 0.5 (≈ 1.02 µM) | –
C[C@@](CCn1cc2c(F)c(C#CC#CC3(O)COC3)ccc2n1)(C(=O)NO)S(C)(=O)=O [Example 38, (R)-4-{4-fluoro-5-[4-(3-hydroxy-oxetan-3-yl)-buta-1,3-diynyl]-indazol-2-yl}-N-hydroxy-2-methylsulfonyl-2-methyl-butanamide] | 0.5 (≈ 1.11 µM) | 1 (≈ 2.22 µM) | > 32 | 1 (≈ 2.22 µM) | –
CN(C)CC#CC#Cc1ccc2nn(CC[C@](C)(C(=O)NO)S(C)(=O)=O)cc2c1 [Example 75, (R)-4-(5-(5-(dimethylamino)penta-1,3-diyn-1-yl)-2H-indazol-2-yl)-N-hydroxy-2-methyl-2-(methylsulfonyl)butanamide] | 0.125 (≈ 0.3 µM) | 0.5 (≈ 1.2 µM) | > 32 | 0.15 (≈ 0.36 µM) | –
